Experimental data as given in paper PMC11422593, “Structural and biochemical analysis of highly similar HLA-B allotypes differentially associated with type 1 diabetes” (The Journal of Biological Chemistry, 2024).
Like-named read-outs stand apart in the source and are kept apart here. No end group written: not given here.

Key:
HLA-B∗39:06 [1] = target: T1, HLA-B∗39:06 (Homo sapiens, UniProt P01889, A182T/A93T/A95T/C349S/D138N/D201E/E176V/E187T/E204Q/K202T/L119W/Q94N/R155S/R180L/S121T/Y140F/Y91C); assay: biochemical; assay type: binding
HLA-B∗39:01 = target: T2, HLA-B∗39:01 (Homo sapiens, UniProt P01889, A182T/A93T/A95T/C349S/D138N/D201E/E176V/E187T/E204Q/K202T/Q94N/R155S/R180L/S121R/Y140F/Y91C); assay: biochemical; assay type: binding
T2 construct: made in house

HLA-B∗38:01 [2] = target: T3, HLA-B∗38:01 (Homo sapiens, UniProt P01889, A182T/A93T/A95T/C349S/D138N/D201E/D98Y/E176V/E187T/E204Q/G107R/K202T/L105A/N104I/Q94N/R106L/R155S/R180L/S101N/S121R/Y140F/Y91C); assay: biochemical
[3] = target: HLA-B∗39:06 (purified MHC molecules) (human); assay: radioligand binding
[4] = target: HLA-B∗38:01 (purified MHC molecules) (human); assay: radioligand binding
[5] = target: HLA-B∗39:01 (purified MHC molecules) (human); assay: radioligand binding
HLA-B∗39:06 [6] = target: T1, HLA-B∗39:06; settings: cited from earlier work
Description: We previously reported the sequences of peptides endogenously bound to and eluted from HLA-B∗39:06 molecules purified from the human lymphoblastoid cell line C1R/HLA-B∗39:06 ([26]). […] Our strategy was based on the prior seminal observations of Ploegh et al. ([27]) that the incubation of cells at 26 °C allows for empty class I MHC molecules to reach the cell surface, and that the MHC can be stabilized if a binding peptide is also included. […] Assays to quantitatively measure peptide binding to purified B∗39:06 and B∗39:01 molecules were based on the inhibition of binding of a high-affinity radiolabeled peptide and performed as described ([26]).

HLA-B∗38:01 [7] = target: T3, HLA-B∗38:01; set-up: made in house; settings: read-out: IC50 of the probe peptide (HLA-B∗38:01 assay); cited from earlier work
[8] = target: HLA-B∗38:01 (purified MHC molecules) (human); assay: radioligand binding; cell-free competitive assay as for B∗39:06, with purified HLA-B∗38:01 and radiolabelled … as the probe

Row | Molecule | IC50 (HLA-B∗39:06 [1]) | IC50 (HLA-B∗39:01) | IC50 (HLA-B∗38:01 [2]) | IC50 [3] | IC50 [5] | other results
1 | MRLLPLLA | 0.041 µM | 0.062 µM | 44.5 µM |  |  | 
2 | MRLLPLLA (human insulin, position 5, 8mer) (peptide) |  |  |  | 0.041 µM | 0.062 µM | IC50 [4]: 44.5 µM
3 | FRLLCALTSL | 0.0074 µM | 0.29 µM | 2.76 µM |  |  | 
4 | SHLVEALYL | 35.6 µM | 5.25 µM | 0.01 µM |  |  | 
5 | … (Variola virus RNA helicase 346–354) (peptide) |  |  |  |  |  | IC50 [4]: 0.0014 µM
6 | WMRLLPLLA | 0.155 µM | 0.865 µM | > 50 µM |  |  | 
7 | … (DDX3X, position 2) (peptide) |  |  |  | 0.696 µM | 0.011 µM | IC50 [4]: 0.321 µM
8 | MRLLPLLAL [MRLLPLLAL] | 0.677 µM | 0.014 µM | 0.85 µM |  |  | 
9 | DHAVVVGV |  |  |  |  |  | rank of binding to HLA-B∗39:06 among the candidate endogenous ligands (HLA-B∗39:06 [6]; cell-free competitive assay, purified HLA-B∗39:06 and high-affinity radiolabeled ligand, also data not shown): by far the weakest HLA-B∗39:06 binder among the candidates
10 | CC(C)C[C@H](NC(=O)[C@H](CS)NC(=O)[C@@H]1CCCN1C(=O)[C@H](CO)NC(=O)[C@H](CO)NC(=O)[C@H](Cc1c[nH]cn1)NC(=O)[C@@H](N)CC(N)=O)C(=O)N[C@@H](CCC(=O)O)C(=O)N[C@@H](CCC(N)=O)C(=O)N[C@@H](Cc1ccccc1)C(=O)O | > 50 µM | 25.7 µM |  |  |  | 
11 | NRVMLPKAA | 0.014 µM | 0.035 µM | > 50 µM |  |  | 
12 | FRYQGHVGA [Homo sapiens proteasome subunit 127–135, reference compound] |  |  |  |  |  | IC50 (HLA-B∗39:06 [6]; unlabeled version of the radiolabeled probe, read-out: IC50 of the probe peptide for B∗39:06): 0.024 µM
13 | NRVMLPKA | 0.041 µM | 0.085 µM |  |  |  | 
14 | YHFLQIPT | 0.151 µM | 0.66 µM | 9.75 µM |  |  | 
15 | FLFLFAVG | 0.405 µM | 17.9 µM | > 50 µM |  |  | 
16 | NRVMLPKA (NLRP2, position 320, 8mer) (peptide) |  |  |  | 0.041 µM | 0.085 µM | 
17 | SASIPLTVVA | 0.31 µM | 30.9 µM | > 50 µM |  |  | 
18 | CC(C)C[C@H](NC(=O)[C@H](C)NC(=O)[C@H](CC(N)=O)NC(=O)[C@H](CCC(=O)O)NC(=O)[C@@H](NC(=O)[C@H](C)NC(=O)[C@@H](NC(=O)[C@H](Cc1c[nH]cn1)NC(=O)[C@@H](N)CO)C(C)C)C(C)C)C(=O)O [SHVAVENAL, reference compound] | 0.696 µM | 0.011 µM | 0.321 µM |  |  | 
19 | … (human insulin, position 5, 9mer) (peptide) |  |  |  | 0.677 µM | 0.014 µM | IC50 [4]: 0.85 µM
20 | TNLFLFLFAV | 0.354 µM | 3.95 µM | 6.69 µM |  |  | 
21 | YHFLQIPT (human G6Pase 2, position 307) (peptide) |  |  |  | 0.151 µM | 0.66 µM | IC50 [4]: 9.75 µM
22 | THFPHQVIL | 2.6 µM | 0.073 µM | 0.142 µM |  |  | 
23 | YHIPGDTLF |  |  |  |  |  | IC50 (HLA-B∗38:01 [7]): 0.0014 µM
24 | FLFLFAVG [FLFLFAVG (human G6Pase 2, position 213)] |  |  |  | 0.405 µM | 17.9 µM | IC50 [8]: > 50 µM
25 | SASIPLTVVA [… (human G6Pase 2, position 328)] |  |  |  | 0.31 µM | 30.9 µM | IC50 [8]: > 50 µM
26 | FRYQGHVGA (not fully specified) [… (Homo sapiens proteasome subunit 127–135)] |  |  |  | 0.024 µM |  | 
27 | WMRLLPLLA [… (human insulin, position 4)] |  |  |  | 0.155 µM | 0.865 µM | IC50 [8]: > 50 µM
28 | NRVMLPKAA [… (NLRP2 320 to 328), free peptide] |  |  |  | 0.014 µM | 0.035 µM | IC50 [8]: > 50 µM
